Results: US6528517B1, “Synthesis of quinobenzoxazine analogues with topoisomerase II and quadruplex interactions for use as antineoplastic agents” (Board of Regents, The University of Texas System, priority 1998, dated 2003)

What was measured:
[1] = target: T1, human topoisomerase II (Homo sapiens, UniProt P11388); test: Decatenation assay (catenated to decatenated KDNA); assay type: biochemical; details: drug concentration that inhibits 50% of conversion of catenated to decatenated KDNA; read-out: topoisomerase II inhibition IC50
T1 construct: purchased TopoGEN, Inc
T1 sequence (P11388 whole entry): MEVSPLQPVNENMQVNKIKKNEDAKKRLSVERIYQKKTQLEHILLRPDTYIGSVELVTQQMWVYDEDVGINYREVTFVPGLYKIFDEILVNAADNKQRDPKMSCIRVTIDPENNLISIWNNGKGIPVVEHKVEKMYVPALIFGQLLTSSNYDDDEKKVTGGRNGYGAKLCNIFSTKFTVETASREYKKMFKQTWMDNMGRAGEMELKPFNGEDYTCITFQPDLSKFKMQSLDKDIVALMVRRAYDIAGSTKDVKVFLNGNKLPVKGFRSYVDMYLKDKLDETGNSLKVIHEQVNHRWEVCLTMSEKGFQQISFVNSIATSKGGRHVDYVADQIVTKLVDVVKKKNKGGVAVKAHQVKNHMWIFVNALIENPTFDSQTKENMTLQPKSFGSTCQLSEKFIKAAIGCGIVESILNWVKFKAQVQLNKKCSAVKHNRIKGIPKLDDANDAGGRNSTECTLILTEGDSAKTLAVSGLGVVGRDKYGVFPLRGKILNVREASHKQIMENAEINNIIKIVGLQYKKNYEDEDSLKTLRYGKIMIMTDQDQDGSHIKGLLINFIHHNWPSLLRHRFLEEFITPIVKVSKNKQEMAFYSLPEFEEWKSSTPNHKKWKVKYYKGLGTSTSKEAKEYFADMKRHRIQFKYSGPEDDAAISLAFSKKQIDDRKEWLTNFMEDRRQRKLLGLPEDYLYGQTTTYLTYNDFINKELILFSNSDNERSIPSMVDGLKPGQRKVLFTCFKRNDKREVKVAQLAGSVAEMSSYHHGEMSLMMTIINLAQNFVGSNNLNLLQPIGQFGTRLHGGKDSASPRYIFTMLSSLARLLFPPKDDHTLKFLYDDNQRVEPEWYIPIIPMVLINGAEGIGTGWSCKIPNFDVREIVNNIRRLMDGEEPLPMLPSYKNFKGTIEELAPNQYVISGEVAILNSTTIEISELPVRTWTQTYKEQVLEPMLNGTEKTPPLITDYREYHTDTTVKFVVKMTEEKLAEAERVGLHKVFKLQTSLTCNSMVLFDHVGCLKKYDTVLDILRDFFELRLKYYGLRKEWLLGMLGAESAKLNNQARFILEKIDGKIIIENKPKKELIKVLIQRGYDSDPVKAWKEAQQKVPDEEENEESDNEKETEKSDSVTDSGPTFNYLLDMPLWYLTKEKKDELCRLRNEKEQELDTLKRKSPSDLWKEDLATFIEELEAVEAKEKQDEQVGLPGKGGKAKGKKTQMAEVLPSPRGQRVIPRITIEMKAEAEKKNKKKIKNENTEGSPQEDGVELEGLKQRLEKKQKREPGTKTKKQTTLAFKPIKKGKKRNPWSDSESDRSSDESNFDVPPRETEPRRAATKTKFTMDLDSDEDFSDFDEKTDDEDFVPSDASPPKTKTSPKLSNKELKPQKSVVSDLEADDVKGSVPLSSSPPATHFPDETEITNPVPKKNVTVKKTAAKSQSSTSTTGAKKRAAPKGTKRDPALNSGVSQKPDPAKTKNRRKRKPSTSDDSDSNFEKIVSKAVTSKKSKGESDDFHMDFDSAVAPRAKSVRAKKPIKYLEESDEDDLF
Procedure: Kinetoplast DNA (KDNA), human topoisomerase II (170 KDa form), and DNA Unwinding Kit including supercoiled pHOT1 DNA, relaxed DNA marker, buffers, and human topoisomerase I were purchased from TopoGEN, Inc. Agarose was purchased from Fisher. Quinobenzoxazine A-62176 (S-enantiomer) was provided by Abbott Laboratories or prepared by published procedure (Chu and Maleczka, Jr., 1987).
0.25 μg of KDNA was incubated with various concentrations of the quinobenzoxazines in a 20-μl reaction mixture containing 50 mM Tris-HCl (pH 8), 120 mM KCl, 10 mM MgCl2, and 0.5 mM each of ATP, dithiothreitol, and […] BSA for 10 min. Two units of human topoisomerase II (170 KDa form) were added to the mixture, which was then incubated at 37° C. for 30 min. The reaction was terminated with 0.1 volume of stop buffer (5% sarkosyl, 0.025% bromophenol blue, and 50% glycerol). The decatenation products were analyzed on 1% agarose gels run with 0.5 μg/ml ethidium bromide. The gels were scanned by FluoroImager and analyzed by ImageQuaNT software (Molecular Dynamics).

[2] = test system: B16 melanoma; test: Cancer cell growth inhibition assay (MTT); assay type: cell-based, murine
Procedure: (§1) Exponentially growing cells in 0.1 ml medium were seeded on Day 0 in 96-well microtiter plates. On Day 1, 0.1-ml aliquots of medium containing graded concentrations test agent were added in duplicate to the cell plates. After incubation at 37° C. in a humidified incubator, the plates were centrifuged briefly (1-2 min at 1000 rpm), and 100 μl of the growth medium was removed. Cell cultures were incubated with 50 μl of 3-(4,5-dimethylthiazyl-2-yl)-2,5-diphenyltetrazolium bromide MTT, 1 mg/ml in Dubecco's PBS for 4 h at 37° C. The resulting purple formazan precipitate was solubilized with 200 μl of 0.4 N HCl in isopropyl alcohol. Absorbance was quantitated using a Bio-Rad Model 3550 microplate reader at a test wavelength of 570 nm and a reference wavelength of 630 nm. Absorbance values were transferred to a 486 personal computer, and the IC50 values were determined using the computer program EZ-ED50 (Chen et al., 1993).

[3] = test system: HT-29 colon; test: Cancer cell growth inhibition assay (MTT); assay type: cell-based, human
Procedure: as §1

[4] = test system: DU-145 prostate; test: Cancer cell growth inhibition assay (MTT); assay type: cell-based, human
Procedure: as §1

[5] = test system: Raji lymphoma; test: Cancer cell growth inhibition assay (MTT); assay type: cell-based, human
Procedure: as §1

[6] = test system: H226 non-small-cell lung; test: Cancer cell growth inhibition assay (MTT); assay type: cell-based, human
Procedure: as §1

[7] = test system: MDA-231 breast; test: Cancer cell growth inhibition assay (MTT); assay type: cell-based, human
Procedure: as §1

[8] = test system: supercoiled pHOT1 DNA; test: DNA unwinding assay; assay type: biochemical; details: concentration shifting topoisomers to the middle position between relaxed and supercoiled bands
Procedure: A 22 μl mixture of 0.25 μg of supercoiled pHOT1 DNA, 5 units of topoisomerase I in topoisomerase I buffer (provided with the kit) was incubated at 37° C. for 30 min. Two μl of various concentrations of drug was added, and the incubation was continued for another 30 min. The reactions were terminated by addition of SDS to 1%. Proteinase K was added to the reaction mixtures to ca. 50 μg/ml, and the reaction mixtures were incubated for 15-20 min at 56° C. After adding 0.1 volume of 10×gel loading buffer, the reaction mixtures were extracted with an equal volume of CIA (Chloroform:isoamyl Alcohol; 24:1). The samples were loaded on an 1% agarous gel that was cast in TPE buffer (36 mM Tris-HCl, pH 7.8, 1 mM EDTA, 30 mM NaH2PO4) and 0.2 μg/ml Chloroquine. The gel was run in TPE buffer at room temperature at 10 volts for 20 h, destained in water for 15 min, stained in 0.05 μg/ml ethidium bromide for 15 min, and destained again in water for 15 min. The gel was then photographed, scanned by FluoroImager, and analyzed by ImageQuaNT software (Molecular Dynamics).

[9] = test system: human telomerase; test: Telomerase inhibition assay (HeLa cell extract); assay type: biochemical
Procedure: The assay used crude HeLa cell extract as the source of human telomerase. It measures the incorporation of ^32P-labeled dGTP into the primer extension of human telomere synthesis (Sun et al., 1998). […] Specific examples of such dual-acting compounds include compounds 2b and 2a (FIG. 3).
The assay was performed by using 5′-end biotinylated d[TTAGGG]3 as the telomere primer. Reaction mixtures (20 μl) containing 5 μl cell lysate (S-100), 50 mM Tris-OAc (pH 8.5), 50 mM K-OAc, 1 mM MgCl2, 5 mM BME, 1 mM spermidine, 1 μM telomere primer, 1.5 μM [α-^32P]-dGTP (800 Ci/mmol), 1 mM dATP, and 1 mM dTTP were incubated at 37° C. for 1 hr, and the reactions were terminated by adding 20 μl of […] streptavidin-coated Dynabeads suspension containing 10 mM Tris-HCl (pH 7.5), 1 mM EDTA, 2M KCl, and a 500 cpm biotinylated internal control. Streptavidin-coated Dynabeads bind selectively to the desired target (5′-biotinylated primer), forming a magnetic bead-targeted complex. The complex was separated from the suspension using a Dynal MPC magnet and washed several times with 2×SSC buffer containing 0.1% SDS to eliminate [α-^32P]-dGTP background. Telomerase reaction products were separated from the magnetic beads by protein denaturation with 5.7 M guanidine-HCl at 90° C. for 30 min. After ethanol precipitation, products were resolved on denaturating 10% polyacrylamide gel.

SMILES | IC50 [1] [µM] | IC50 [2] [µM] | IC50 [3] [µM] | IC50 [4] [µM] | IC50 [5] [µM] | IC50 [6] [µM] | IC50 [7] [µM] | DNA unwinding concn [8] [µM] | telomerase inhibition (qualitative) [9]
Cl.NC1CCN(c2c(F)cc3c(=O)c(C(=O)O)cn4c3c2Oc2ccc3ccccc3c2-4)C1 (centres unmarked) [Compound 1c, 1-(3-Aminopyrrolidin-1-yl)-2-fluoro-4-oxo-4H-pyrido[3,2,1-k,l]-benzo[h]-phenoxazine-5-carboxylic Acid] | 0.72 | 0.13 ± 0.02 | 0.27 ± 0.04 | 0.14 ± 0.01 | 0.082 ± 0.008 | 0.13 ± 0.01 | 0.19 ± 0.04 | 19 | –
O=C(O)c1cn2c3c(c(N4CCNCC4)c(F)cc3c1=O)Oc1ccc3ccccc3c1-2 [Compound 4, 1-(Piperazin-1-yl)-2-fluoro-4-oxo-4H-pyrido[3,2,1-k,l]-benzo[h]phenoxazine-5-carboxylic Acid] | 9.6 | 2.1 ± 0.3 | 2 ± 0.2 | 0.84 ± 0.27 | 0.8 ± 0.05 | 2.1 ± 0.2 | 2.2 ± 0.3 | >100 | –
Cl.NC1CCN(c2c(F)cc3c(=O)c(C(=O)O)cn4c3c2Oc2cc3ccccc3cc2-4)C1 (centres unmarked) [Compound 3b, 1-(3-Aminopyrrolidin-1-yl)-2-fluoro-4-oxo-4H-pyrido[3,2,1-k,l]-benzo[g]-phenoxazine-5-carboxylic Acid] | 0.42 | 0.14 ± 0.015 | 0.022 ± 0.003 | 0.048 ± 0.008 | 0.032 ± 0.005 | 0.022 ± 0.015 | 0.021 ± 0.002 | 15 | –
Cl.NC1CCN(c2c(F)cc3c(=O)c(C(=O)O)cn4c3c2Oc2cc3ccccc3cc2-4)C1 (centres unmarked) [Compound 3c, 1-(3-Aminopyrrolidin-1-yl)-2-fluoro-4-oxo-4H-pyrido[3,2,1-k,l]-benzo[g]-phenoxazine-5-carboxylic Acid] | 0.44 | 0.02 ± 0.006 | 0.023 ± 0.003 | 0.03 ± 0.006 | 0.029 ± 0.005 | 0.014 ± 0.002 | 0.01 ± 0.002 | 13 | –
Cl.NC1CCN(c2c(F)cc3c(=O)c(C(=O)O)cn4c3c2Oc2ccc3ccccc3c2-4)C1 (centres unmarked) [Compound 1b, 1-(3-Aminopyrrolidin-1-yl)-2-fluoro-4-oxo-4H-pyrido[3,2,1-k,l]-benzo[h]-phenoxazine-5-carboxylic Acid] | 1.22 | 0.68 ± 0.05 | 0.36 ± 0.04 | 0.36 ± 0.12 | 0.16 ± 0.07 | 2.4 ± 0.1 | 0.35 ± 0.06 | 35 | –
Cl.NC1CCN(c2c(F)cc3c(=O)c(C(=O)O)cn4c3c2Oc2c-4ccc3ccccc23)C1 (racemic) [Compound 2a, 1-(3-Aminopyrrolidin-1-yl)-2-fluoro-4-oxo-4H-pyrido[3,2,1-k,l]-benzo[f]-phenoxazine-5-carboxylic Acid] | 0.55 | 0.04 ± 0.004 | 0.03 ± 0.003 | 0.017 ± 0.007 | 0.018 ± 0.001 | 0.022 ± 0.002 | 0.027 ± 0.002 | – | dual-acting
O=C(O)c1cn2c3c(c(N4CCNCC4)c(F)cc3c1=O)Oc1c-2ccc2ccccc12 [Compound 5, 1-(Piperazin-1-yl)-2-fluoro-4-oxo-4H-pyrido[3,2,1-k,l]-benzo[f]phenoxazine-5-carboxylic Acid] | 1.84 | 0.65 ± 0.06 | 0.36 ± 0.09 | 0.14 ± 0.04 | 0.21 ± 0.04 | 0.2 ± 0.03 | 0.38 ± 0.05 | >100 | –
O=C(O)c1cn2c3c(c(N4CCNCC4)c(F)cc3c1=O)Oc1cc3ccccc3cc1-2 [Compound 6, 1-(Piperazin-1-yl)-2-fluoro-4-oxo-4H-pyrido[3,2,1-k,l]-benzo[g]phenoxazine-5-carboxylic Acid] | 0.64 | 0.045 ± 0.048 | 6.8 ± 1.8 | 0.075 ± 0.032 | 0.0072 ± 0.0076 | > 100 | > 1000 | >100 | –
Cl.NC1CCN(c2c(F)cc3c(=O)c(C(=O)O)cn4c3c2Oc2c-4ccc3ccccc23)C1 (centres unmarked) [Compound 2c, 1-(3-Aminopyrrolidin-1-yl)-2-fluoro-4-oxo-4H-pyrido[3,2,1-k,l]-benzo[f]-phenoxazine-5-carboxylic Acid] | 0.49 | 0.18 ± 0.02 | 0.051 ± 0.006 | 0.064 ± 0.007 | 0.02 ± 0.004 | 0.027 ± 0.004 | 0.084 ± 0.007 | 10 | –
NC1CCN(c2c(F)cc3c(=O)c(C(=O)O)cn4c3c2Oc2ccc3ccccc3c2-4)C1 (racemic) [Compound 1a, 1-(3-Aminopyrrolidin-1-yl)-2-fluoro-4-oxo-4H-pyrido[3,2,1-k,l]-benzo[h]-phenoxazine-5-carboxylic Acid] | 0.77 | 0.44 ± 0.06 | 0.18 ± 0.01 | 0.2 ± 0.03 | 0.086 ± 0.006 | 0.14 ± 0.01 | 0.15 ± 0.04 | – | –
NC1CCN(c2c(F)cc3c(=O)c(C(=O)O)cn4c3c2Oc2cc3ccccc3cc2-4)C1 (racemic) [Compound 3a, 1-(3-Aminopyrrolidin-1-yl)-2-fluoro-4-oxo-4H-pyrido[3,2,1-k,l]-benzo[g]-phenoxazine-5-carboxylic Acid] | 0.77 | 0.1 ± 0.01 | 0.028 ± 0.005 | 0.025 ± 0.009 | 0.038 ± 0.006 | 0.004 ± 0.002 | 0.023 ± 0.004 | – | –
